Assay [1] concerns the target T1, DRB5=HLA-DR(α1*0101,α5*0101) (Homo sapiens, UniProt P01903+Q30154).
T1 construct: endogenous in cells; host or cells: EBV homozygous human B cell line
The experiment in a line: biochemical. It counts as binding. The settings on record: Table V; […]; read-out: IC50 DRB5.

For assay [2], the target named is T2, DR15=HLA-DR(α1*0101,α1*1501) (Homo sapiens, UniProt P01903+P01911).
T2 construct: endogenous in cells; host or cells: EBV homozygous human B cell line
The experiment in a line: HLA-DR specific binding assay, DR15.

The target of assay [3] is T3, DR7=HLA-DR(α1*0101,α1*0701) (Homo sapiens, UniProt P01903+P01911, A100R/A102G/A103Q/D57E/D86V/E43K/F76Y/K127E/L162R/M171V/P40G/Q125H/Q99D/R33Q/R42Y/R54Q/S133A/S66F/T210M/V115G/Y107V/Y59L/Y89S).
T3 construct: endogenous in cells; host or cells: EBV homozygous human B cell line
The experiment in a line: HLA-DR specific binding assay, DR7.

The target in assay [4] is T4, DRB4=HLA-DR(α1*0101,α4*0101) (Homo sapiens, UniProt P01903+P13762, G164S).
T4 construct: endogenous in cells
The experiment in a line: HLA-DR specific binding assay, DRB4 (DR53).

For assay [5], the target named is T5, DR4=HLA-DR(α1*0101,α1*0401) (Homo sapiens, UniProt P01903+P01911, A100K/A169T/F76Y/I96L/K127E/L162R/M171V/N62H/P40V/Q125Y/R42H/S133A/S149N/S66Y/V115G/V209L/W38E).
T5 construct: endogenous in cells; host or cells: BOLETH (EBV homozygous B cell line)
The experiment in a line: biochemical. It is filed as binding.

The target in assay [6] is T6, DP402 DP (α1*0101, α1*0402) (Homo sapiens, UniProt P04440+P20036, A65V/A84D/A85E/L207M).
T6 sequence (P20036 29-260): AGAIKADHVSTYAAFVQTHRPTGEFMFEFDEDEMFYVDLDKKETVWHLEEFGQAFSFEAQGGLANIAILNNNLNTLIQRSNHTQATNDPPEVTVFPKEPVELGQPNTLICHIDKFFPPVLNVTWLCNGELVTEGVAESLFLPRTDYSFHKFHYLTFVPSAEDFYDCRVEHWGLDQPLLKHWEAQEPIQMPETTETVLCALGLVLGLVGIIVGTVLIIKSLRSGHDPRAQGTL
T6 sequence (P04440 30-258 A65V/A84D/A85E): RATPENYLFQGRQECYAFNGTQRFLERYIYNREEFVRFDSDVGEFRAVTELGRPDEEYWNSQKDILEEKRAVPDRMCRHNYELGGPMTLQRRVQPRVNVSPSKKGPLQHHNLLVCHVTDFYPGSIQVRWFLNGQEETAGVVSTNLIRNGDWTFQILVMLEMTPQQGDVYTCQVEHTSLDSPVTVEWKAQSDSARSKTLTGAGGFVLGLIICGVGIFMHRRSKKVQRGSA
The experiment in a line: biochemical. It is filed as binding.

The target of assay [7] is T7, DR3=HLA-DR(α1*0101,α1*0301) (Homo sapiens, UniProt P01903+P01911, A100K/A102G/A103R/A169T/F55Y/I96L/K41T/L162R/M171V/P40S/Q125H/Q178H/Q39Y/R42S/S66N/T106N/T262R/W38E/Y61H).
T7 construct: endogenous in cells; host or cells: STEILIN (EBV homozygous B cell line)
The experiment in a line: HLA-DR specific binding assay, DR3.

In assay [8] the target is T8, DP401=HLA-DP(α1*0101,α1*0401) (Homo sapiens, UniProt P04440+P20036).
T8 sequence (P20036 32-260 limits assumed): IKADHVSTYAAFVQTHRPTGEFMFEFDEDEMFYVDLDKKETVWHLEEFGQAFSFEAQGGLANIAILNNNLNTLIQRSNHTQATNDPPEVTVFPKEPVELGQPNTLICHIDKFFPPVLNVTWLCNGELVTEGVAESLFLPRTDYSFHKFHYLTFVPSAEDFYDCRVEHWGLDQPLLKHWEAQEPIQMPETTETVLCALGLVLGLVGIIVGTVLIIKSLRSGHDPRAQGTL
T8 sequence (P04440 30-258): T6 sequence (P04440 30-258 A65V/A84D/A85E) with V36A, D55A, E56A
The experiment in a line: biochemical. It counts as binding.

Assay [9] has as its target T9, DR13=HLA-DR(α1*0101,α1*1301) (Homo sapiens, UniProt P01903+P01911, A100E/A169T/K41T/L162R/M171V/P40S/Q125H/Q178H/Q39Y/Q99D/R42S/S66N/T262R/W38E/Y61H).
T9 construct: endogenous in cells; host or cells: 0206AD (EBV homozygous B cell line)
The experiment in a line: HLA-DR specific binding assay, DR13.

Assay [10] addresses T10, DRB3=HLA-DR(α1*0101,α3*0101) (Homo sapiens, UniProt P01903+P79483).
T10 construct: endogenous in cells; host or cells: STEILIN or 0206AD (both typed DRB3*0101)
Put plainly: HLA-DR specific binding assay, DRB3 (DR52).

Assay [11] has as its target T11, DR1=HLA-DR(α1*0101,α1*0101) (Homo sapiens, UniProt P01903+P01911, A100R/D57E/F55L/F60I/F76Y/I96L/L162R/M171V/P40L/Q125E/R42F/V115G/Y59C).
T11 construct: endogenous in cells; host or cells: EBV homozygous human B cell line
Put plainly: biochemical. It counts as binding. The settings on record: […].

Assay [12] has as its target T12, DR11=HLA-DR(α1*0101,α1*1101) (Homo sapiens, UniProt P01903+P01911, A100R/A169T/A87E/I96F/K41T/L162R/M171V/P40S/Q125H/Q178H/Q39Y/Q99D/R42S/S66Y/T262R/V115G/W38E).
T12 construct: endogenous in cells; host or cells: SWEIG (EBV homozygous B cell line)
Put plainly: biochemical. It counts as binding.

The mark [13] stands for this setting: Table V, […], read-out: IC50 DR4.
Setting [14] is: Table V, […], read-out: IC50 DR11.

Structures are written as SMILES. Positions count from the first letter of the chain named. Where two headings read alike, the source gives them in different places. Some results are limits rather than exact numbers.

T10 sequence (P79483 30-266, other chains not shown): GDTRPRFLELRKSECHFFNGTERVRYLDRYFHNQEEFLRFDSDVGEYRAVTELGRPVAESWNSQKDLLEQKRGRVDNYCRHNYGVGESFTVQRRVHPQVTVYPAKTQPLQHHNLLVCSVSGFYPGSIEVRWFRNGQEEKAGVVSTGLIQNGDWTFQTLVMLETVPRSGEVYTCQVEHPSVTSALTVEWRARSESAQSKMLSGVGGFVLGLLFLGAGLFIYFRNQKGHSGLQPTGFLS
T1 sequence (Q30154 30-266, other chains not shown): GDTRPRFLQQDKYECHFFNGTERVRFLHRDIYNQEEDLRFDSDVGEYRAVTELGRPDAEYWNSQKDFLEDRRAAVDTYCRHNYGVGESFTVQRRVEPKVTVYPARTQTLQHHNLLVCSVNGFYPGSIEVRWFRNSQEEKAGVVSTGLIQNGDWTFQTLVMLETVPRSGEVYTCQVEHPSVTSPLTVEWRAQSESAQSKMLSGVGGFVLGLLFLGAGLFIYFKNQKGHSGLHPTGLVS

With `CSCC[C@H](NC(=O)[C@H](CC(=O)O)NC(=O)[C@@H](NC(=O)[C@@H](NC(=O)[C@H](CCCCN)NC(=O)[C@H](C)NC(=O)[C@H](CO)NC(=O)[C@H](CC(C)C)NC(=O)[C@H](CC(C)C)NC(=O)[C@H](C)NC(=O)[C@H](CO)NC(=O)[C@@H](NC(=O)CN)[C@@H](C)O)C(C)C)[C@@H](C)O)C(=O)N[C@H](C(=O)N[C@@H](CCSC)C(=O)N[C@@H](CCCNC(=N)N)C(=O)N[C@@H](CCCCN)C(=O)N[C@@H](CCCNC(=N)N)C(=O)N[C@@H](CCCNC(=N)N)C(=O)N[C@@H](CC(N)=O)C(=O)N[C@H](C(=O)N[C@@H](CC(N)=O)C(=O)N[C@@H](Cc1ccc(O)cc1)C(=O)N[C@H](C(=O)N[C@@H](CCC(N)=O)C(=O)N[C@H](C(=O)N1CCC[C@H]1C(=O)N[C@@H](CC(N)=O)C(=O)N[C@@H](CCCCN)C(=O)N[C@@H](CC(=O)O)C(=O)NCC(=O)N[C@@H](CC(=O)O)C(=O)N[C@@H](C)C(=O)N[C@@H](CC(=O)O)C(=O)O)C(C)C)[C@@H](C)O)[C@@H](C)O)C(C)C` [HSV 9], the IC50 in [1] amounted to 0.559 µM; in [2] it was 2.43 µM; in assay [3], 0.229 µM; in assay [4], 16 µM; in assay [5] (setting [13]) it was 4 µM; in assay [6] (Class II MHC allele DP402), 4 µM. The IC50 came out at 4 µM in assay [6] (Table V, […]); 11.4 µM in [7] (IC50 DR3, Table V, […]); 8 µM in assay [8] (Table V, […]); 0.362 µM in assay [9]; 58 µM in assay [10] (IC50 DRB3, Table V, […]); 0.493 µM in [11] (Table V, read-out: IC50 DR1). Besides, in assay [12] (setting [14]), the 50% inhibitory concentration (IC50) was found to be 0.424 µM.

For the molecule `CC[C@H](C)[C@H](NC(=O)[C@H](Cc1c[nH]cn1)NC(=O)[C@H](Cc1ccc(O)cc1)NC(=O)[C@@H](NC(=O)[C@H](CCCNC(=N)N)NC(=O)[C@H](CCCNC(=N)N)NC(=O)[C@@H](NC(=O)CNC(=O)[C@@H]1CCCN1C(=O)[C@@H]1CCCN1C(=O)[C@H](CC(=O)O)NC(=O)[C@@H](NC(=O)[C@H](CC(C)C)NC(=O)[C@H](CCC(N)=O)NC(=O)[C@H](CC(=O)O)NC(=O)[C@H](CC(C)C)NC(=O)[C@@H](NC(=O)[C@@H]1CCCN1C(=O)[C@H](CC(C)C)NC(=O)[C@@H](N)CC(=O)O)C(C)C)[C@@H](C)O)C(C)C)C(C)C)C(=O)N[C@@H](CCC(N)=O)C(=O)N[C@@H](C)C(=O)NCC(=O)N[C@@H](CC(C)C)C(=O)N1CCC[C@H]1C(=O)N[C@@H](CC(=O)O)C(=O)N1CCC[C@H]1C(=O)N[C@@H](Cc1ccccc1)C(=O)N[C@@H](CCC(N)=O)C(=O)N1CCC[C@H]1C(=O)N1CCC[C@H]1C(=O)N[C@@H](CO)C(=O)O` [HSV 31], the 50% inhibitory concentration (IC50) stood at 0.058 µM in assay [1]; 0.787 µM in [2]; 0.224 µM in [3]; 0.397 µM in [4]; 0.063 µM in assay [5] (IC50 DR4); 49 µM in assay [6] (Class II MHC allele DP402). Further, the half-maximal inhibitory concentration (IC50) is 47 µM in assay [6] (Table V, […]); 2.49 µM in assay [7] (IC50 DR3, Table V, […]); 62 µM in assay [8] (Table V, […]); above 100 µM in assay [9]; 6.98 µM in assay [10] (IC50, DRD3, Class II MHC allele DRD3 (so in the source)); 5.98 µM in assay [10] (IC50 DRB3, Table V, […]). In [11] (Table V, read-out: IC50 DR1), the IC50 came out at 0.003 µM.

For `CC[C@H](C)[C@H](NC(=O)[C@H](CCC(N)=O)NC(=O)[C@@H]1CCCN1C(=O)[C@H](C)N)C(=O)N[C@H](C(=O)N[C@@H](CCCNC(=N)N)C(=O)NCC(=O)N[C@@H](C)C(=O)N[C@@H](CO)C(=O)N[C@@H](CCC(=O)O)C(=O)N[C@@H](CC(=O)O)C(=O)N[C@H](C(=O)N[C@@H](CCCNC(=N)N)C(=O)N[C@@H](CCCCN)C(=O)N[C@@H](CCC(N)=O)C(=O)N1CCC[C@H]1C(=O)N[C@@H](Cc1ccc(O)cc1)C(=O)N[C@@H](CC(N)=O)C(=O)N[C@@H](CC(C)C)C(=O)N[C@H](C(=O)N[C@H](C(=O)N[C@@H](C)C(=O)N[C@@H](Cc1c[nH]c2ccccc12)C(=O)N[C@@H](Cc1ccccc1)C(=O)N[C@@H](CCCNC(=N)N)C(=O)N[C@@H](CCSC)C(=O)NCC(=O)NCC(=O)O)[C@@H](C)CC)[C@@H](C)O)C(C)C)C(C)C` [HSV 32], the half-maximal inhibitory concentration (IC50) in [1] was 0.001 µM; in [3], 0.004 µM; in assay [6] (Table V, […]), 0.381 µM; in assay [7] (IC50 DR3, Table V, […]) it was 2.35 µM; in assay [8] (Table V, […]), 1.45 µM; in assay [10] (IC50 DRB3, Table V, […]), above 100 µM. Also, the IC50 in assay [12] (Class II MHC allele DR11, read-out: IC50, DR11) stood at 0.3 µM; in [12] (setting [14]), 0.3 µM.

Consider `CSCC[C@H](NC(=O)[C@H](CCCCN)NC(=O)[C@H](CC(C)C)NC(=O)[C@H](CO)NC(=O)[C@H](C)NC(=O)[C@H](CC(=O)O)NC(=O)[C@@H](NC(=O)[C@H](CC(C)C)NC(=O)[C@H](C)NC(=O)[C@H](Cc1ccc(O)cc1)NC(=O)[C@H](CCCCN)NC(=O)[C@@H](N)CO)C(C)C)C(=O)N[C@@H](C)C(=O)N[C@@H](CC(=O)O)C(=O)N1CCC[C@H]1C(=O)N[C@@H](CC(N)=O)C(=O)N[C@@H](CCCNC(=N)N)C(=O)N[C@@H](Cc1ccccc1)C(=O)N[C@@H](CCCNC(=N)N)C(=O)NCC(=O)N[C@@H](CCCCN)C(=O)N[C@@H](CC(=O)O)C(=O)N[C@@H](CC(C)C)C(=O)N1CCC[C@H]1C(=O)N[C@H](C(=O)N[C@@H](CC(C)C)C(=O)N[C@@H](CC(=O)O)C(=O)N[C@@H](CCC(N)=O)C(=O)N[C@@H](CC(C)C)C(=O)O)C(C)C` [HSV 30], for which the half-inhibitory concentration (IC50) in [1] is 0.007 µM; in [2] it was 11 µM; in assay [3], 0.374 µM; in assay [4] it was above 100 µM; in assay [5] (setting [13]), 0.058 µM; in assay [6] (Table V, […]), 3.8 µM. For the same molecule, the IC50 in [7] (IC50, DR3, Class II MHC allele DR3) was 0.079 µM; in assay [7] (IC50 DR3, Table V, […]), 0.078 µM; in [8] (Class II MHC allele DP401), 17.7 µM; in assay [8] (Table V, […]) it was 17.9 µM; in assay [9], above 100 µM; in [10] (IC50 DRB3, Table V, […]), 0.535 µM. The IC50 in assay [11] (Class II MHC allele DR1, read-out: IC50, DR1) is 0.058 µM; in [12] (setting [14]), 0.648 µM.

By IC50 is commonly meant the concentration that inhibits the measured activity by half.
